Assay results as given in US11040981B2, “Pyrrolotriazine compounds and methods of inhibiting TAM kinases” (Syros Pharmaceuticals, Inc., priority 2017, dated 2021).

What was measured:
AXL = target: T1, AXL (Homo sapiens, UniProt P30530); test: TR-FRET kinase activity assay, AXL; format: biochemical; settings: ATP at Km, 60 minutes
T1 sequence (P30530 26-894): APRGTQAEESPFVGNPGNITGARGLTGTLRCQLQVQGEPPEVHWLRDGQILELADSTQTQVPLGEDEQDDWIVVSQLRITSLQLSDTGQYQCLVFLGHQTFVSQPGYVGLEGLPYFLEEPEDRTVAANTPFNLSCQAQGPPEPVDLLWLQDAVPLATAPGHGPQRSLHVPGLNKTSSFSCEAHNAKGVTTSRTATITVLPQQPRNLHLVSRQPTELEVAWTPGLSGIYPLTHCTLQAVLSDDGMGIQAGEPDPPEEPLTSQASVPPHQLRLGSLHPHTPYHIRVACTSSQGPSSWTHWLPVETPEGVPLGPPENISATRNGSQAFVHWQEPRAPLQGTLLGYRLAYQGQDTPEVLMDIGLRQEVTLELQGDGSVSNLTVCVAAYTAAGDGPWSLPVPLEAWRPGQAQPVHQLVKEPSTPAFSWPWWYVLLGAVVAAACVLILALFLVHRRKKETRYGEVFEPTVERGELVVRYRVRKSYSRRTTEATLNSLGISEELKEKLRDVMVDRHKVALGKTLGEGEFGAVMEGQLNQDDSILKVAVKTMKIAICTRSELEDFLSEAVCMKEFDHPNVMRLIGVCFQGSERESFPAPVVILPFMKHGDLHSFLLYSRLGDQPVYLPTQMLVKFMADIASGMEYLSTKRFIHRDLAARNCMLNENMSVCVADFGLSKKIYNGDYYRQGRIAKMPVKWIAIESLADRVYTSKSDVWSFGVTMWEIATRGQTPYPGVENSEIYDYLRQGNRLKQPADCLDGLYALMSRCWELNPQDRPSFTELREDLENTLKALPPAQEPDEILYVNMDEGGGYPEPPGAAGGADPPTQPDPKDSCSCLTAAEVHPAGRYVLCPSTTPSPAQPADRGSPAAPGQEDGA
How it was run: (§1)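 Each kinase phosphorylated a fluorescent-labelled tyrosine peptide in 50 mM HEPES pH 7.5, 10 mM MgCl2, 1 mM EGTA, 0.01% Brij 35, 1 mM DTT at RT, with ATP at Km for that enzyme. After 60 min, EDTA quench and Eu-anti-phosphotyrosine antibody (30 min, dark); IC50 from TR-FRET decrease.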

FLT3 = target: T2, FLT3 (Homo sapiens, UniProt P36888); test: TR-FRET kinase activity assay, FLT3; format: biochemical; settings: ATP at Km, 60 minutes
T2 sequence (P36888 27-993): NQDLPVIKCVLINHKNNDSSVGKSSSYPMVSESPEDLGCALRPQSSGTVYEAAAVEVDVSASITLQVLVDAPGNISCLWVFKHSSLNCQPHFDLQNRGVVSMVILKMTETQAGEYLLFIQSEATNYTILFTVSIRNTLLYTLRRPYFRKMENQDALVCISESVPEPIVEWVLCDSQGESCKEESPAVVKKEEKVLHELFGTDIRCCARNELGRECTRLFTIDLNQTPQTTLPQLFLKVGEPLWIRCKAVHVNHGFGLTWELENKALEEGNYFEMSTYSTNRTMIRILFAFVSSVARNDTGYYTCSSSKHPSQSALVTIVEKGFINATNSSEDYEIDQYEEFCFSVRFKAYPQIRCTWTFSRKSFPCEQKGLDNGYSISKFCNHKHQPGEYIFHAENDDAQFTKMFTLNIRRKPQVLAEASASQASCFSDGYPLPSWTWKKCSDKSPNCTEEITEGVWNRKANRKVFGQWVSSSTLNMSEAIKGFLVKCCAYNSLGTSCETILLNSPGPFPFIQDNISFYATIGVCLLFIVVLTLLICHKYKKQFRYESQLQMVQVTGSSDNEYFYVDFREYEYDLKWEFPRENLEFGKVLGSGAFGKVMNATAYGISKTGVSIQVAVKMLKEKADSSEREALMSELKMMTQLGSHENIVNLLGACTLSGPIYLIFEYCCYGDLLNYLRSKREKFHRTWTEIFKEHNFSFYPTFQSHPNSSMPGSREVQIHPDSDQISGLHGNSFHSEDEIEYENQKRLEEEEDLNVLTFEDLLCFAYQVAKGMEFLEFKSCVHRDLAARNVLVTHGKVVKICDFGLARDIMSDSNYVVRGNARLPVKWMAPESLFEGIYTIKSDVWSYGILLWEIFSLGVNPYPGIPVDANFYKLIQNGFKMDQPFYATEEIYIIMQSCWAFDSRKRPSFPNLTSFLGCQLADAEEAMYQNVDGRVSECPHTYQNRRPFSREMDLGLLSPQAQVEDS
How it was run: as §1

COC[C@H](C)Nc1ncc2c(-c3cnn(C4COC4)c3)cc(-c3ccc(OC)cc3)n2n1 [Compound 502]
IC50 (AXL): 100 to 1000 nM
IC50 (FLT3): 1000 to 10000 nM

COC[C@H](C)Nc1ncc2c(-c3cnn(C4COC4)c3)cc(C3CCOCC3)n2n1 [Compound 503]
IC50 (AXL): 100 to 1000 nM
IC50 (FLT3): 1000 to 10000 nM

COC[C@H](C)Nc1ncc2c(-c3ccnc(N4CCN(C(=O)OC5COC5)CC4)c3)cc([C@H]3CC[C@H](O)CC3)n2n1 [Compound 504]
IC50 (AXL): ≤ 100 nM
IC50 (FLT3): 100 to 1000 nM

COC[C@H](C)Nc1ncc2c(-c3ccnc(F)c3)cc([C@H]3CC[C@H](O)CC3)n2n1 [Compound 505]
IC50 (AXL): ≤ 100 nM
IC50 (FLT3): 1000 to 10000 nM

COC[C@H](C)Nc1ncc2c(-c3cnn(CC(C)(C)N4CCOCC4)c3)cc([C@H]3CC[C@H](O)CC3)n2n1 [Compound 507]
IC50 (AXL): ≤ 100 nM
IC50 (FLT3): 100 to 1000 nM

COC[C@H](C)Nc1ncc2c(-c3conc3C)cc([C@H]3CC[C@H](O)CC3)n2n1 [Compound 508]
IC50 (AXL): ≤ 100 nM
IC50 (FLT3): 1000 to 10000 nM

COC[C@H](C)Nc1ncc2c(-c3ccnc(N4CCc5nc(C)sc5C4)c3)cc([C@H]3CC[C@H](O)CC3)n2n1 [Compound 509]
IC50 (AXL): ≤ 100 nM
IC50 (FLT3): 1000 to 10000 nM
